{"source": "PubChem BioAssay (NCI)", "experiment_in_all_cases": "NCI-60 cell line screen, 48 h", "key": {"786-0 renal": {"test_system": "786-0 renal"}, "EKVX NSCLC": {"test_system": "EKVX NSCLC"}, "HT29 colon": {"test_system": "HT29 colon"}, "PC-3 prostate": {"test_system": "PC-3 prostate"}, "HL-60(TB) leukemia": {"test_system": "HL-60(TB) leukemia"}, "MDA-MB-231 breast": {"test_system": "MDA-MB-231 breast"}, "RPMI-8226 leukemia": {"test_system": "RPMI-8226 leukemia"}, "SR leukemia": {"test_system": "SR leukemia"}, "COLO 205 colon": {"test_system": "COLO 205 colon"}, "CAKI-1 renal": {"test_system": "CAKI-1 renal"}}, "note": "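Tested at 5 concentrations; 48 h exposure; 96-well plates; endpoints linearly interpolated, else capped at highest concentration. GI50 marks 50% less growth. Definition used: TGI = concentration required for complete inhibition of growth.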", "data": [{"smiles": "COc1ccc2c(c1)c(-c1nc(-c3cn(C)c4ncccc34)cs1)cn2CCCCN1CCCCC1", "values": [{"measurement": "GI50", "setting": "786-0 renal", "value": 1.61, "unit": "µM"}, {"measurement": "TGI", "setting": "786-0 renal", "value": 3.06, "unit": "µM"}, {"measurement": "GI50", "setting": "EKVX NSCLC", "value": 1.66, "unit": "µM"}, {"measurement": "TGI", "setting": "EKVX NSCLC", "value": 3.18, "unit": "µM"}, {"measurement": "GI50", "setting": "HT29 colon", "value": 1.59, "unit": "µM"}, {"measurement": "TGI", "setting": "HT29 colon", "value": 3.03, "unit": "µM"}, {"measurement": "GI50", "setting": "PC-3 prostate", "value": 1.61, "unit": "µM"}, {"measurement": "TGI", "setting": "PC-3 prostate", "value": 3, "unit": "µM"}]}, {"smiles": "Fc1cnccc1-c1nc2ccc3[nH]ncc3c2c2c1CCCC2", "values": [{"measurement": "GI50", "setting": "786-0 renal", "value": 1.67, "unit": "µM"}, {"measurement": "TGI", "setting": "786-0 renal", "value": 5.23, "unit": "µM"}, {"measurement": "GI50", "setting": "EKVX NSCLC", "value": 0.442, "unit": "µM"}, {"measurement": "TGI", "setting": "EKVX NSCLC", "value": 13, "unit": "µM"}, {"measurement": "GI50", "setting": "HL-60(TB) leukemia", "value": 2.2, "unit": "µM"}, {"measurement": "TGI", "setting": "HL-60(TB) leukemia", "value": 7.3, "unit": "µM"}, {"measurement": "GI50", "setting": "HT29 colon", "value": 2.49, "unit": "µM"}, {"measurement": "TGI", "setting": "HT29 colon", "value": "> 100", "unit": "µM"}, {"measurement": "GI50", "setting": "MDA-MB-231 breast", "value": 2.3, "unit": "µM"}, {"measurement": "TGI", "setting": "MDA-MB-231 breast", "value": "> 100", "unit": "µM"}, {"measurement": "GI50", "setting": "PC-3 prostate", "value": 2.13, "unit": "µM"}, {"measurement": "TGI", "setting": "PC-3 prostate", "value": "> 100", "unit": "µM"}, {"measurement": "GI50", "setting": "RPMI-8226 leukemia", "value": 1.2, "unit": "µM"}, {"measurement": "TGI", "setting": "RPMI-8226 leukemia", "value": 6.33, "unit": "µM"}, {"measurement": "GI50", "setting": "SR leukemia", "value": 0.519, "unit": "µM"}, {"measurement": "TGI", "setting": "SR leukemia", "value": 5.08, "unit": "µM"}]}, {"smiles": "Cc1cc(Br)ccc1N=NC1C(=O)ON=C1c1ccccc1", "note": "(centres undefined)", "values": [{"measurement": "TGI", "setting": "786-0 renal", "value": "> 100", "unit": "µM"}, {"measurement": "TGI", "setting": "COLO 205 colon", "value": 29.6, "unit": "µM"}, {"measurement": "TGI", "setting": "EKVX NSCLC", "value": "> 100", "unit": "µM"}, {"measurement": "TGI", "setting": "HL-60(TB) leukemia", "value": "> 100", "unit": "µM"}, {"measurement": "TGI", "setting": "HT29 colon", "value": "> 100", "unit": "µM"}, {"measurement": "TGI", "setting": "RPMI-8226 leukemia", "value": "> 100", "unit": "µM"}, {"measurement": "TGI", "setting": "SR leukemia", "value": "> 100", "unit": "µM"}]}, {"smiles": "CC(=O)Nc1ccc(/C=C/C(=O)c2sc(-n3nc(-c4ccccc4)cc3-c3ccccc3)nc2C)cc1", "values": [{"measurement": "GI50", "setting": "786-0 renal", "value": "> 100", "unit": "µM"}, {"measurement": "TGI", "setting": "786-0 renal", "value": "> 100", "unit": "µM"}, {"measurement": "GI50", "setting": "CAKI-1 renal", "value": "> 100", "unit": "µM"}, {"measurement": "TGI", "setting": "CAKI-1 renal", "value": "> 100", "unit": "µM"}, {"measurement": "GI50", "setting": "COLO 205 colon", "value": "> 100", "unit": "µM"}, {"measurement": "TGI", "setting": "COLO 205 colon", "value": "> 100", "unit": "µM"}, {"measurement": "GI50", "setting": "EKVX NSCLC", "value": "> 100", "unit": "µM"}, {"measurement": "TGI", "setting": "EKVX NSCLC", "value": "> 100", "unit": "µM"}, {"measurement": "GI50", "setting": "HL-60(TB) leukemia", "value": "> 100", "unit": "µM"}, {"measurement": "TGI", "setting": "HL-60(TB) leukemia", "value": "> 100", "unit": "µM"}, {"measurement": "TGI", "setting": "HT29 colon", "value": "> 100", "unit": "µM"}, {"measurement": "GI50", "setting": "RPMI-8226 leukemia", "value": "> 100", "unit": "µM"}, {"measurement": "TGI", "setting": "RPMI-8226 leukemia", "value": "> 100", "unit": "µM"}]}, {"smiles": "BrC(/C=N/Nc1nnc(-c2ccccc2)c(-c2ccccc2)n1)C(Br)c1ccccc1", "note": "(centres undefined)", "values": [{"measurement": "TGI", "setting": "786-0 renal", "value": "> 100", "unit": "µM"}, {"measurement": "TGI", "setting": "CAKI-1 renal", "value": "> 100", "unit": "µM"}, {"measurement": "TGI", "setting": "COLO 205 colon", "value": "> 100", "unit": "µM"}, {"measurement": "TGI", "setting": "EKVX NSCLC", "value": "> 100", "unit": "µM"}, {"measurement": "TGI", "setting": "HL-60(TB) leukemia", "value": 79.5, "unit": "µM"}, {"measurement": "TGI", "setting": "HT29 colon", "value": "> 100", "unit": "µM"}, {"measurement": "TGI", "setting": "RPMI-8226 leukemia", "value": 70.7, "unit": "µM"}]}, {"smiles": "O=c1ccn([C@@H]2C[C@H](CO)CS(=O)C2)c(=O)[nH]1", "note": "(some centres undefined)", "values": [{"measurement": "TGI", "setting": "786-0 renal", "value": "> 100", "unit": "µM"}, {"measurement": "TGI", "setting": "CAKI-1 renal", "value": "> 100", "unit": "µM"}, {"measurement": "TGI", "setting": "COLO 205 colon", "value": "> 100", "unit": "µM"}, {"measurement": "TGI", "setting": "EKVX NSCLC", "value": "> 100", "unit": "µM"}, {"measurement": "TGI", "setting": "HL-60(TB) leukemia", "value": "> 100", "unit": "µM"}, {"measurement": "TGI", "setting": "HT29 colon", "value": "> 100", "unit": "µM"}, {"measurement": "TGI", "setting": "RPMI-8226 leukemia", "value": "> 100", "unit": "µM"}]}, {"smiles": "CC(=O)[O-].O=C([CH-]C(=O)c1ccccc1)c1ccccc1.O=C([CH-]C(=O)c1ccccc1)c1ccccc1.[Dy+3]", "values": [{"measurement": "GI50", "setting": "786-0 renal", "value": 12, "unit": "µM"}, {"measurement": "TGI", "setting": "786-0 renal", "value": 35.9, "unit": "µM"}, {"measurement": "GI50", "setting": "CAKI-1 renal", "value": 17, "unit": "µM"}, {"measurement": "TGI", "setting": "CAKI-1 renal", "value": 50.3, "unit": "µM"}, {"measurement": "GI50", "setting": "COLO 205 colon", "value": 15.3, "unit": "µM"}, {"measurement": "TGI", "setting": "COLO 205 colon", "value": 34.1, "unit": "µM"}, {"measurement": "GI50", "setting": "EKVX NSCLC", "value": 9.62, "unit": "µM"}, {"measurement": "TGI", "setting": "EKVX NSCLC", "value": 42.6, "unit": "µM"}, {"measurement": "GI50", "setting": "HL-60(TB) leukemia", "value": 2.84, "unit": "µM"}, {"measurement": "TGI", "setting": "HL-60(TB) leukemia", "value": 11.5, "unit": "µM"}, {"measurement": "GI50", "setting": "HT29 colon", "value": 11.3, "unit": "µM"}, {"measurement": "TGI", "setting": "HT29 colon", "value": 26.2, "unit": "µM"}, {"measurement": "GI50", "setting": "RPMI-8226 leukemia", "value": 7.87, "unit": "µM"}, {"measurement": "TGI", "setting": "RPMI-8226 leukemia", "value": 34.7, "unit": "µM"}]}, {"smiles": "N#CC1(C2CC(=O)N(c3ccccc3)C2=O)CCCCC1=O", "note": "(centres undefined)", "values": [{"measurement": "TGI", "setting": "786-0 renal", "value": "> 100", "unit": "µM"}, {"measurement": "TGI", "setting": "COLO 205 colon", "value": "> 100", "unit": "µM"}, {"measurement": "TGI", "setting": "EKVX NSCLC", "value": "> 100", "unit": "µM"}, {"measurement": "TGI", "setting": "HL-60(TB) leukemia", "value": "> 100", "unit": "µM"}, {"measurement": "TGI", "setting": "HT29 colon", "value": "> 100", "unit": "µM"}, {"measurement": "TGI", "setting": "RPMI-8226 leukemia", "value": "> 100", "unit": "µM"}, {"measurement": "TGI", "setting": "SR leukemia", "value": "> 100", "unit": "µM"}]}, {"smiles": "O=C(Nc1cc(Cl)ccc1Cl)c1cc2ccccc2oc1=O", "values": [{"measurement": "TGI", "setting": "786-0 renal", "value": "> 100", "unit": "µM"}, {"measurement": "TGI", "setting": "COLO 205 colon", "value": "> 100", "unit": "µM"}, {"measurement": "TGI", "setting": "EKVX NSCLC", "value": "> 100", "unit": "µM"}, {"measurement": "TGI", "setting": "HL-60(TB) leukemia", "value": "> 100", "unit": "µM"}, {"measurement": "TGI", "setting": "HT29 colon", "value": "> 100", "unit": "µM"}, {"measurement": "TGI", "setting": "RPMI-8226 leukemia", "value": "> 100", "unit": "µM"}]}, {"smiles": "N#Cc1cccc(C2SCc3nc4ccccc4n32)c1", "note": "(centres undefined)", "values": [{"measurement": "TGI", "setting": "786-0 renal", "value": "> 100", "unit": "µM"}, {"measurement": "TGI", "setting": "CAKI-1 renal", "value": "> 100", "unit": "µM"}, {"measurement": "TGI", "setting": "COLO 205 colon", "value": "> 100", "unit": "µM"}, {"measurement": "TGI", "setting": "EKVX NSCLC", "value": "> 100", "unit": "µM"}, {"measurement": "TGI", "setting": "HL-60(TB) leukemia", "value": "> 100", "unit": "µM"}, {"measurement": "TGI", "setting": "HT29 colon", "value": "> 100", "unit": "µM"}, {"measurement": "TGI", "setting": "SR leukemia", "value": "> 100", "unit": "µM"}]}, {"smiles": "O=C(/C=C/c1c[nH]c2ccccc12)c1ccccc1O", "values": [{"measurement": "TGI", "setting": "786-0 renal", "value": 25.5, "unit": "µM"}, {"measurement": "TGI", "setting": "EKVX NSCLC", "value": 33, "unit": "µM"}, {"measurement": "TGI", "setting": "HL-60(TB) leukemia", "value": "> 100", "unit": "µM"}, {"measurement": "TGI", "setting": "HT29 colon", "value": 33.9, "unit": "µM"}, {"measurement": "TGI", "setting": "MDA-MB-231 breast", "value": 18.4, "unit": "µM"}, {"measurement": "TGI", "setting": "PC-3 prostate", "value": 18.7, "unit": "µM"}, {"measurement": "TGI", "setting": "RPMI-8226 leukemia", "value": 62.1, "unit": "µM"}]}]}
